Assay results from PubChem BioAssay AID2060898 (Molecular Pharmacology Branch, DTP, NCI, 2025).
Each block holds one compound with its values, some of them ahead of it.

Test system: 616215-338-R-J1-PDC complex spheroid viability
Test: Anticancer human tumor 616215-338-R-J1-PDC patient-derived colon adenocarcinoma cell line growth inhibition [RAS]
Details: for IC50: curve of first compound; for viability, T/C: stronger effect = lower value
Excerpt: RAS pathway inhibitors in Combinations in Complex Spheroids
A high-throughput screen of multi-cell type tumor spheroids was designed to identify active combinations of RAS pathway inhibitors and targeted small molecules. Complex spheroids include a stromal component modeled by human endothelial cells (HUVEC) and fibroblasts modeled by human mesenchymal stem cells (MSCs). The concentration ranges selected for each drug and investigational agent were based upon clinically achievable concentrations if the clinical Cmax of the agent was known.
Compounds. The drugs and investigational agents: abemaciclib (NSC768073), cobimetinib (NSC768068), divarasib (GDC6063, NSC841802), docetaxel (NSC628503), GDC-1971 (RLY-1971, NSC841576), gemcitabine (NSC613327), inavolisib (NSC800729), ipatasertib (NSC767898), KB-0742 (NSC834161), MRTX-1133 (NSC836407), osimertinib (NSC779217), RMC-4630 (NSC839698), RMC-6236 (NSC851965), RMC-6291 (NSC852671), Ro-3306 (NSC812927), sapanisertib (NSC764658), SN-38 (NSC673596), staurosporine (NSC755774), SY5609 (NSC837396), and tovorafenib (DAY101, NSC766906), were obtained from the National Cancer Institute (NCI) Developmental Therapeutics Program Chemical Repository. The FDA-approved anticancer drug set is available from the NCI Developmental Therapeutics Program. […] The stock solutions were prepared in dimethyl sulfoxide (DMSO, Sigma-Aldrich, St. Louis, MO, cat. D2650) at 800-fold the tested concentration and stored at -70 degrees C prior to their use. All drugs and investigational agents were tested over a range starting from a high concentration at or near the clinical Cmax and decreasing in half-log increments. If the clinical Cmax for an agent had not been determined, the highest concentration tested was 10 microM.
Cell Culture. All cells were maintained in an incubator at 37 degrees C and 5% CO2 with 95% humidity. The PDC lines were cultured according to standard operating procedures established by the NCI PDMR. All PDCs were thawed and cultured in Matrigel-coated flasks prepared with a working solution of 1X Ham's F-12 nutrient mix, without supplementation (Invitrogen, Waltham, MA, cat. 11765054), 100 U/mL penicillin-streptomycin (Invitrogen, cat. 15140122), and 2.5% Matrigel (Corning Inc., Corning, NY, cat. 354248) for the first three passages. The 362531-283-R-J2-PDC and 782815-120-R-J1-PDC lines were cultured in 6C/Colon 1B media, which includes advanced DMEM/F-12 (Thermo Fisher Scientific, cat. 12634028), 10 mM HEPES (Thermo Fisher Scientific, cat. 15630080), 1X GlutaMAX supplement (Thermo Fisher Scientific, cat. 35050061), 0.1 mg/mL primocin (InvivoGen, San Diego, CA, cat. ant-pm-2), 10% defined fetal bovine serum, heat inactivated (HyClone Laboratories Inc., Logan, UT, cat. SH30070.03HI), 50% L-WRN conditioned media (ATCC, cat. CRL-3276), 1.25 mM N-Acetyl-L-cysteine (Sigma-Aldrich, cat. A9165), 10 mM nicotinamide (Sigma-Aldrich, cat. N0636), 1X B-27 supplement (Thermo Fisher Scientific, cat. 17504044), 1X N-2 supplement (Thermo Fisher Scientific, cat. 17502048), 50 ng/mL human EGF (Thermo Fisher Scientific, cat. PHG0311), and 10 microM Y-27632 dihydrochloride (Tocris Bioscience, cat. 1254). The K12877-001-R-J1-PDC line was cultured in 6I media, which includes all 6C/Colon 1B media plus 10 ng/mL human FGF-10 (PeproTech, cat. 100-26), 1 ng/mL human FGF-2 (PeproTech, cat. 100-18B), 1 µM prostaglandin E2 (Tocris Bioscience, cat. 2296), […] hydrocortisone (Sigma-Aldrich, cat. H4001), and […] bovine insulin (Sigma-Aldrich, cat. I6634). The K86415-001-R-J1-PDC line was cultured in 6D media, which includes all 6C/Colon 1B media components minus the L-WRN conditioned media. The 485176-168-R4-J1-PDC was cultured in PANC media, which includes all 6C/Colon 1B media plus 100 ng/mL human FGF-10 (PeproTech, cat. 100-26), 500 nM SB-431542 (Selleckchem, cat. S1067), and 10 nM gastrin (Tocris Bioscience, cat. 3006). […]

[1] = second compound 0.0316 µM, first compound 0.0316 µM
[2] = second compound 0.0316 µM, first compound 0.1 µM
[3] = second compound 0.0316 µM, first compound 0.316 µM
[4] = second compound 0.0316 µM, first compound 1 µM
[5] = second compound 0.0316 µM, first compound 3.16 µM
[6] = second compound 0.0316 µM, first compound 10 µM
[7] = second compound 0.1 µM, first compound 0.0316 µM
[8] = second compound 0.1 µM, first compound 0.1 µM
[9] = second compound 0.1 µM, first compound 0.316 µM
[10] = second compound 0.1 µM, first compound 1 µM
[11] = second compound 0.1 µM, first compound 3.16 µM
[12] = second compound 0.1 µM, first compound 10 µM
[13] = second compound 0.316 µM, first compound 0.0316 µM
[14] = second compound 0.316 µM, first compound 0.1 µM
[15] = second compound 0.316 µM, first compound 0.316 µM
[16] = second compound 0.316 µM, first compound 1 µM
[17] = second compound 0.316 µM, first compound 3.16 µM
[18] = second compound 0.316 µM, first compound 10 µM
[19] = second compound 1 µM, first compound 0.0316 µM
[20] = second compound 1 µM, first compound 0.1 µM
[21] = second compound 1 µM, first compound 0.316 µM
[22] = second compound 1 µM, first compound 1 µM
[23] = second compound 1 µM, first compound 3.16 µM
[24] = second compound 1 µM, first compound 10 µM
[25] = second compound 3.16 µM, first compound 0.0316 µM
[26] = second compound 3.16 µM, first compound 0.1 µM
[27] = second compound 3.16 µM, first compound 0.316 µM
[28] = second compound 3.16 µM, first compound 1 µM
[29] = second compound 3.16 µM, first compound 3.16 µM
[30] = second compound 3.16 µM, first compound 10 µM
[31] = second compound 10 µM, first compound 0.0316 µM
[32] = second compound 10 µM, first compound 0.1 µM
[33] = second compound 10 µM, first compound 0.316 µM
[34] = second compound 10 µM, first compound 1 µM
[35] = second compound 10 µM, first compound 3.16 µM
[36] = second compound 10 µM, first compound 10 µM
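Further: spheroids exposed to agents for seven days before viability readout.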
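Wherever viability, T/C is given: 100% = DMSO vehicle control viability.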

IC50 (second compound 0.0316 µM): < 31.6 nM
IC50 (second compound 0.1 µM): < 31.6 nM
IC50 (second compound 0.316 µM): < 31.6 nM
IC50 (second compound 1 µM): < 31.6 nM
IC50 (second compound 3.16 µM): < 31.6 nM
IC50 (second compound 10 µM): < 31.6 nM
Compound: CC(=O)OC12COC1CC(O)C1(C)C(=O)C(O)C3=C(C)C(OC(=O)C(O)C(NC(=O)OC(C)(C)C)c4ccccc4)CC(O)(C(OC(=O)c4ccccc4)C21)C3(C)C (stereo unspecified) + C#Cc1c(F)ccc2cc(O)cc(-c3ncc4c(N5CC6CCC(C5)N6)nc(OCC56CCCN5CC(F)C6)nc4c3F)c12
viability, T/C [1]: 26.7%
viability, T/C [2]: 23.1%
viability, T/C [3]: 18.6%
viability, T/C [4]: 18.8%
viability, T/C [5]: 22.8%
viability, T/C [6]: 23%
viability, T/C [7]: 26.2%
viability, T/C [8]: 23.6%
viability, T/C [9]: 17.9%
viability, T/C [10]: 18%
viability, T/C [11]: 25.9%
viability, T/C [12]: 23.3%
viability, T/C [13]: 29.3%
viability, T/C [14]: 21.3%
viability, T/C [15]: 18%
viability, T/C [16]: 18.1%
viability, T/C [17]: 22.4%
viability, T/C [18]: 22.1%
viability, T/C [19]: 23%
viability, T/C [20]: 19.6%
viability, T/C [21]: 20.9%
viability, T/C [22]: 17.1%
viability, T/C [23]: 19.1%
viability, T/C [24]: 19.4%
viability, T/C [25]: 20.7%
viability, T/C [26]: 17.4%
viability, T/C [27]: 15.9%
viability, T/C [28]: 15.1%
viability, T/C [29]: 17.9%
viability, T/C [30]: 23.4%
viability, T/C [31]: 14.5%
viability, T/C [32]: 14.9%
viability, T/C [33]: 16.1%
viability, T/C [34]: 13%
viability, T/C [35]: 17.5%
viability, T/C [36]: 12.3%

IC50 (second compound 0.0316 µM): 4630 nM
IC50 (second compound 0.1 µM): 4730 nM
IC50 (second compound 0.316 µM): 1970 nM
IC50 (second compound 1 µM): 198 nM
IC50 (second compound 3.16 µM): 34.7 nM
IC50 (second compound 10 µM): < 31.6 nM
Compound: NC1c2ccccc2OC12CCN(c1cnc3c(N4CCCc5ncccc54)n[nH]c3n1)CC2 (stereo unspecified) + C#Cc1c(F)ccc2cc(O)cc(-c3ncc4c(N5CC6CCC(C5)N6)nc(OCC56CCCN5CC(F)C6)nc4c3F)c12
viability, T/C [1]: 128%
viability, T/C [2]: 112%
viability, T/C [3]: 75.9%
viability, T/C [4]: 81.6%
viability, T/C [5]: 67.6%
viability, T/C [6]: 29.6%
viability, T/C [7]: 123%
viability, T/C [8]: 105%
viability, T/C [9]: 88.5%
viability, T/C [10]: 61.8%
viability, T/C [11]: 56.6%
viability, T/C [12]: 43.4%
viability, T/C [13]: 114%
viability, T/C [14]: 84.4%
viability, T/C [15]: 63.2%
viability, T/C [16]: 55.1%
viability, T/C [17]: 49.2%
viability, T/C [18]: 32.4%
viability, T/C [19]: 88.6%
viability, T/C [20]: 59.5%
viability, T/C [21]: 43%
viability, T/C [22]: 33.8%
viability, T/C [23]: 43%
viability, T/C [24]: 26.6%
viability, T/C [25]: 50.5%
viability, T/C [26]: 44.5%
viability, T/C [27]: 50.7%
viability, T/C [28]: 39%
viability, T/C [29]: 35.6%
viability, T/C [30]: 35.7%
viability, T/C [31]: 40%
viability, T/C [32]: 44.4%
viability, T/C [33]: 36.2%
viability, T/C [34]: 29.5%
viability, T/C [35]: 33.4%
viability, T/C [36]: 31.6%

IC50 (second compound 0.0316 µM): 9.25 nM
IC50 (second compound 0.1 µM): 9.98 nM
IC50 (second compound 0.316 µM): 9.74 nM
IC50 (second compound 1 µM): 5.94 nM
IC50 (second compound 3.16 µM): 3.91 nM
IC50 (second compound 10 µM): 3.26 nM
Compound: Nc1ccn(C2OC(CO)C(O)C2(F)F)c(=O)n1 (stereo unspecified) + C#Cc1c(F)ccc2cc(O)cc(-c3ncc4c(N5CC6CCC(C5)N6)nc(OCC56CCCN5CC(F)C6)nc4c3F)c12
viability, T/C (second compound 0.0316 µM, first compound 0.00316 µM): 113%
viability, T/C (second compound 0.0316 µM, first compound 0.01 µM): 44.9%
viability, T/C [1]: 24.6%
viability, T/C [2]: 13%
viability, T/C [3]: 13.2%
viability, T/C [4]: 16.3%
viability, T/C (second compound 0.1 µM, first compound 0.00316 µM): 117%
viability, T/C (second compound 0.1 µM, first compound 0.01 µM): 48.8%
viability, T/C [7]: 28.1%
viability, T/C [8]: 14.9%
viability, T/C [9]: 14.4%
viability, T/C [10]: 14.6%
viability, T/C (second compound 0.316 µM, first compound 0.00316 µM): 90%
viability, T/C (second compound 0.316 µM, first compound 0.01 µM): 48.5%
viability, T/C [13]: 28.4%
viability, T/C [14]: 15.6%
viability, T/C [15]: 13.9%
viability, T/C [16]: 14.8%
viability, T/C (second compound 1 µM, first compound 0.00316 µM): 77%
viability, T/C (second compound 1 µM, first compound 0.01 µM): 24.4%
viability, T/C [19]: 26.7%
viability, T/C [20]: 12.7%
viability, T/C [21]: 10.8%
viability, T/C [22]: 12.1%
viability, T/C (second compound 3.16 µM, first compound 0.00316 µM): 55.9%
viability, T/C (second compound 3.16 µM, first compound 0.01 µM): 24.1%
viability, T/C [25]: 19%
viability, T/C [26]: 10.6%
viability, T/C [27]: 11.6%
viability, T/C [28]: 12.1%
viability, T/C (second compound 10 µM, first compound 0.00316 µM): 50.9%
viability, T/C (second compound 10 µM, first compound 0.01 µM): 21.4%
viability, T/C [31]: 16.3%
viability, T/C [32]: 12.4%
viability, T/C [33]: 10%
viability, T/C [34]: 10.9%
